The source of these data is ChEMBL document CHEMBL1151710, “Sesquiterpenes from the sponge Axinyssa isabela” (2008).

Assay [1] deals with A549. Put plainly: Cytotoxicity against human A549 cells by SRB assay. It counts as functional. For orientation: The SRB assay estimates cell density from bound dye.
Assay [2] relates to MDA-MB-231. Briefly: Cytotoxicity against human MDA-MB-231 cells by SRB assay. The format is functional.
Assay [3] concerns HT-29. Put plainly: Cytotoxicity against human HT-29 cells by SRB assay. The format is functional.
Assay [4] relates to A549. Put plainly: Cytotoxicity against human A549 cells at 10 ug/ml by SRB assay. The format is functional, cell-based.
The test system of assay [5] is HT-29. Briefly: Cytotoxicity against human HT-29 cells at 10 ug/ml by SRB assay. It counts as functional, cell-based.
Assay [6] concerns MDA-MB-231. Put plainly: Cytotoxicity against human MDA-MB-231 cells at 10 ug/ml by SRB assay. It counts as functional, cell-based.

Each structure is given as a SMILES string. The source made the active and inactive calls. The calls are words filed in the database; no cut-off is given here.

On to `C=C(C)[C@]1(OO)CC[C@@]2(C)CCC[C@@](C)(N=C=S)[C@@H]2C1` [AXINISOTHIOCYANATE N], for which the results for the GI50 in the assay on A549 [1] and in the assay with MDA-MB-231 [2] were 32.6 µM and 33.3 µM, respectively.

On to `COc1cccc2c1C(=O)c1c(O)c3c(c(O)c1C2=O)C[C@@](O)(C(=O)CO)C[C@@H]3O[C@H]1C[C@H](N)[C@H](O)[C@H](C)O1` [DOXORUBICIN], for which the 50% growth inhibitory concentration (GI50) in the assay with A549 [1], with HT-29 [3] and in the assay on MDA-MB-231 [2] was 0.1 µM in each case.

Consider `C[C@H]1CC(=O)C=C2[C@H]3O[C@H]3[C@H]3[C@H](C3(C)C)[C@@]21C` [AXINYSONE E], for which the GI50 in the assay on A549 [1] came to 38.7 µM; with HT-29 [3], 38.3 µM.

On to `C=C(C)[C@H]1CC[C@@]2(C)CCC[C@@](C)(N=C=S)[C@@H]2C1`, for which the outcome in the assay on A549 [4], in the assay with HT-29 [5] and in the assay with MDA-MB-231 [6] was inactive.

On to `C[C@H]1CCCC2=CC(=O)[C@H]3[C@H](C3(C)C)[C@@]21C`, for which the outcome in the assay on A549 [4], in the assay on HT-29 [5] and in the assay on MDA-MB-231 [6] was inactive.

For `C=C1CCC[C@]2(C)CC[C@@H](C(=C)C)[C@H](N=C=S)[C@@H]12`, the outcome in the assay with A549 [4], in the assay with HT-29 [5] and in the assay on MDA-MB-231 [6] was inactive.

Turning to `C=C(C)[C@]1(O)CC[C@@]2(C)CCC[C@@](C)(N=C=S)[C@@H]2C1`, the outcome in the assay with A549 [4], in the assay on HT-29 [5] and in the assay on MDA-MB-231 [6] was inactive.

Turning to `C[C@H]1CC[C@@H](OO)C2=CC(=O)[C@H]3[C@H](C3(C)C)[C@@]21C`, the outcome in the assay on A549 [4], with HT-29 [5] and in the assay on MDA-MB-231 [6] was inactive.

For the molecule `C[C@H]1CCC[C@]2(O)[C@@H](O)C(=O)[C@H]3[C@H](C3(C)C)[C@]12C`, the outcome with A549 [4], with HT-29 [5] and in the assay with MDA-MB-231 [6] was inactive.

With `C[C@H]1CCCC2=C[C@H](C#N)[C@H]3[C@H](C3(C)C)[C@@]21C`, the outcome in the assay with A549 [4], in the assay on HT-29 [5] and in the assay with MDA-MB-231 [6] was inactive.

Turning to `C[C@H]1CC[C@H](O)C2=CC(=O)[C@H]3[C@H](C3(C)C)[C@@]21C`, the result in the assay with A549 [4], in the assay on HT-29 [5] and in the assay with MDA-MB-231 [6] was inactive.

With `C[C@H]1CC[C@@H](O)C2=CC(=O)[C@H]3[C@H](C3(C)C)[C@@]21C`, the result in the assay with A549 [4], in the assay on HT-29 [5] and in the assay on MDA-MB-231 [6] was inactive.

For the molecule `CC(C)=CCCC(C)(N=C=S)[C@H]1CC=C(C)CC1` (some centres not stated), the outcome in the assay with A549 [4], in the assay with HT-29 [5] and with MDA-MB-231 [6] was inactive.

By GI50 is commonly meant the concentration that inhibits growth by half. Read a high GI50 as lower sensitivity of the cells.
